# Source: patent US5272147A, “Pyrazolopyrimidinone antianginal agents” (Pfizer Inc., priority 1991, dated 1993)
# Key:
# Assay type in all cases: biochemical
# [1] = molecular target: T1, Ca/CAM-independent cGMP PDE (Oryctolagus cuniculus, UniProt G1SX67); experiment: Phosphodiesterase activity: inhibition of calcium/calmodulin (Ca/CAM)-independent cGMP PDE from rabbit platelets; details: in vitro; Ca/CAM-independent cGMP PDE from rabbit platelets
# T1 construct: The PDE enzymes are isolated from rabbit platelets and rat kidney; from tissue; host or cells: rabbit platelets
# Protocol: (§1) Compound affinities for cGMP and cAMP PDEs are assessed by determination of their IC50 value (the concentration of inhibitor required for 50% inhibition of enzyme activity). The PDE enzymes are isolated from rabbit platelets and rat kidney, essentially by the method of W. J. Thompson et al. (Biochem., 1971, 10, 311). The calcium/calmodulin (Ca/CAM)-independentcGMP PDE and the cGMP-inhibited cAMP PDE enzymes are obtained from rabbit platelets whilst, of the four major PDE enzymes of the rat kidney, the Ca/CAM-dependent cGMP PDE (fraction I) is isolated. Assays are performed using a modification of the "batch" method of W. J. Thompson and M. M. Appleman (Biochem., 1979, 18, 5228).
# [2] = tested on: Ca/CAM-independent cGMP PDE; experiment: as above; details: between Ca/CAM-independent cGMP PDE and cGMP-inhibited cAMP PDE (IC50 cAMP / IC50 cGMP)
# Protocol: as §1
# cGMP-inhibited cAMP PDE = molecular target: T2, cGMP-inhibited cAMP PDE (Oryctolagus cuniculus, UniProt G1ST54); experiment: Phosphodiesterase activity: inhibition of cGMP-inhibited cAMP PDE from rabbit platelets; details: in vitro
# T2 construct: The PDE enzymes are isolated from rabbit platelets and rat kidney; from tissue; host or cells: rabbit platelets
# T2 sequence (G1ST54 1-1128): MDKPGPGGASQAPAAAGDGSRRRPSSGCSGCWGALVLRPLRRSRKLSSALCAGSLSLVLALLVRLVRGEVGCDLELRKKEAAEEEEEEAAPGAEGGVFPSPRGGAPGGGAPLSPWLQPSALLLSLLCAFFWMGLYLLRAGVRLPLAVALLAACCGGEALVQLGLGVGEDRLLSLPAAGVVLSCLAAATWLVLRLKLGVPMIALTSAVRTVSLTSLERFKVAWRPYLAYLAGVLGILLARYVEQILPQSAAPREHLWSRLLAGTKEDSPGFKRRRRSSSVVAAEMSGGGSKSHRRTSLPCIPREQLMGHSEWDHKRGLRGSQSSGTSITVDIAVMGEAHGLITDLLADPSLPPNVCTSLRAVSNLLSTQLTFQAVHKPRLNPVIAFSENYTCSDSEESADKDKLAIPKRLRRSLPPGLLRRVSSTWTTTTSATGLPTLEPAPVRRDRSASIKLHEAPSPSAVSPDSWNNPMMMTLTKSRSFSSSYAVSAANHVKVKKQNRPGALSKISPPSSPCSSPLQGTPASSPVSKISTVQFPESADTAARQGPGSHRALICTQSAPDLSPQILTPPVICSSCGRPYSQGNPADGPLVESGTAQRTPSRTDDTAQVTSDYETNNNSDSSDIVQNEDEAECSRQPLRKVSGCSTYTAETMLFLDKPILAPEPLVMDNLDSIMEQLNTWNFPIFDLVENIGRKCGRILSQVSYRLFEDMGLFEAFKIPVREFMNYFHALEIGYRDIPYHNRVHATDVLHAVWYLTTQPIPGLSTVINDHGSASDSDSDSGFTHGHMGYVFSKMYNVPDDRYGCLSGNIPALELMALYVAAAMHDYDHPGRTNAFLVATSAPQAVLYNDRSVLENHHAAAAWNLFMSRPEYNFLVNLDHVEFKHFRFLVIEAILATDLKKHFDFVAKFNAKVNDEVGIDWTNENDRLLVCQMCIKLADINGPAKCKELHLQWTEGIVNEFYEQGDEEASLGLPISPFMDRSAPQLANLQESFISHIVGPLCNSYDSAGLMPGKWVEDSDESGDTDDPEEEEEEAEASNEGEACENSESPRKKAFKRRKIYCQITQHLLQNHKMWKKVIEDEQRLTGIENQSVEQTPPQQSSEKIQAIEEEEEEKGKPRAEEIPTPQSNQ
# Protocol: as §1
Compound,IC50 [1] [µM],IC50 (cGMP-inhibited cAMP PDE) [µM],SELECTIVITY RATIO [2]
CCCc1nn(C)c2c(=O)[nH]c(-c3cc(C(O)CN4CCOCC4)ccc3OCC)nc12 (centres unmarked) [Example 11],0.0049,57,"11,632"
"CCCOc1ccc(C(=O)CN2CCOCC2)cc1-c1nc2c(CCC)nn(C)c2c(=O)[nH]1 [Example 14, 1-Methyl-5-(5-morpholinoacetyl-2-n-propoxyphenyl)-3-n-propyl-1,6-dihydro-7H-pyrazolo[4,3-d]pyrimidin-7-one]",0.001,57,"57,000"
"CCCc1nn(C)c2c(=O)[nH]c(-c3cc(C(=O)CN4CCN(C(C)=O)CC4)ccc3OCC)nc12 [Example 3, 5-[5-(4-acetyl-1-piperazinyl)acetyl-2-ethoxyphenyl]-1-methyl-3-n-propyl-1,6-dihydro-7H-pyrazolo[4,3-d]pyrimidin-7-one]",0.0022,86,"39,090"
"CCCc1nn(C)c2c(=O)[nH]c(-c3cc(C(=O)O)ccc3OCC)nc12 [Example 29, 4-Ethoxy-3-(-1-methyl-3-n-propyl-1,6-dihydro-7H-pyrazolo[4,3-d]-pyrimidin-5-yl)benzoic acid]",0.0055,84,"15,272"
"CCCc1nn(C)c2c(=O)[nH]c(-c3cc(/C=C/C(=O)N(C)C)ccc3OCC)nc12 [Example 25, (E)-4-Ethoxy-3(1-methyl-3-n-propyl-1,6-dihydro-7H-pyrazolo[4,3-d]-pyrimidin-5-yl)cinnamic acid dimethylamide]",0.0034,84,"24,705"
"CCCOc1ccc(COCCO)cc1-c1nc2c(CCC)nn(C)c2c(=O)[nH]1 [Example 39, 5-[5-(2-Hydroxyethoxymethyl)-2-n-propoxyphenyl]-1-methyl-3-n-propyl-1,6-dihydro-7H-pyrazolo[4,3-d]-pyrimidin-7-one]",0.0053,54,"10,188"
"CCCOc1ccc(C(=O)CN2CCN(C)CC2)cc1-c1nc2c(CCC)nn(C)c2c(=O)[nH]1 [Example 15, 1-Methyl-5-[5-(4-methyl-1-piperazinylacetyl)-2n-propoxyphenyl]-3-n-propyl-1,6-dihydro-7H-pyrazolo [4,3-d]pyrimidin-7-one]",0.0034,75,"22,058"
"CCCOc1ccc(/C=C/C(=O)O)cc1-c1nc2c(CCC)nn(C)c2c(=O)[nH]1 [Example 20, (E)-3-(1-Methyl-7-oxo-3-n-propyl-1,6-dihydro-7H-pyrazolo[4,3-d]-pyrimidin-5-yl)-4-n-propoxycinnamic acid]",0.0037,59,"15,945"

# Continued by falling IC50 [1], values first:
IC50 [1] [µM],IC50 (cGMP-inhibited cAMP PDE) [µM],Compound,SELECTIVITY RATIO [2]
0.0037,53,"CCCOc1ccc(C(O)CN2CCOCC2)cc1-c1nc2c(CCC)nn(C)c2c(=O)[nH]1 (centres unmarked) [Example 16, 5-[5-(1-Hyroxy-2-morpholinoethyl)-2-n-propoxyphenyl]-1-methyl-3-n-propyl-1,6-dihydro-7H-pyrazolo[4,3-d]pyrimidin-7-one]","14,324"
0.0034,56,"CCCc1nn(C)c2c(=O)[nH]c(-c3cc(-n4ccnc4)ccc3OCC)nc12 [Example 31, 5-[2-Ethoxy-5-(1-imidazolyl)phenyl]-1-methyl-3-n-propyl-1,6-dihydro-7H-pyrazolo[4,3-d]-pyrimidin-7-one]","16,470"
0.0018,63,"CCCc1nn(C)c2c(=O)[nH]c(-c3cc(C(=O)CN4CCOCC4)ccc3OCC)nc12 [Example 4, 5-(2-ethoxy-5-morpholinoacetylphenyl)-1-methyl-3-n-propyl-1,6dihydro-7H-pyrazolo[4,3-d]pyrimidin-7-one]","35,000"
0.0014,38,"CCCc1nn(C)c2c(=O)[nH]c(-c3cc(-c4nccn4C)ccc3OCC)nc12 [Example 32, 5-[2-ethoxy-5-(1-methyl-2-imidazolyl)phenyl]-1methyl-3-n-propyl-1,6-dihydro-7H-pyrazolo[4,3-d]pyrimidin-7-one]","27,142"
0.0014,58,"CCCc1nn(C)c2c(=O)[nH]c(-c3cc(C(=O)N4CCN(C)CC4)ccc3OCC)nc12 [Example 30, 5-[2-Ethoxy-5-(4-methylpiperazinylcarbonyl)phenyl]-1-methyl-3-n-propyl-1,6-dihydro-7H-pyrazolo[4,3-d]-pyrimidin-7-one]",
